Values of other authors, collected in patent EP4609858A1, “BUP[…] AND PREPARATION METHOD THEREFOR” (Shenzhen Sciencare Pharmaceutical Co., Ltd., priority 2023, dated 2024).
Where a name gives a salt, the structure may show the parent alone. Read-outs that look alike come from different tables or passages of the source.

Structure (SMILES): CO[C@]12CC[C@@]3(C[C@@H]1[C@](C)(O)C(C)(C)C)[C@H]1Cc4ccc(O)c5c4[C@@]3(CCN1CC1CC1)[C@H]2O5 [buprenorphine hydrochloride]
- solubility (in alcohol): soluble
- solubility (in methanol): freely soluble
- solubility (in water): slightly soluble
